We go through three compounds from article PMC6005341, “Identification of “sarsasapogenin-aglyconed” timosaponins as novel Aβ-lowering modulators of amyloid precursor protein processing” (Chemical Science, 2016).

The test system of assay [1] is APP processing in N2A-APPswe cells. The experiment in a line: Immunoblot of APP processing in N2A-APPswe cells. Type of assay: cell-based. From the text:
Reagents: All reagents were of analytical grade (purity > 98%) and were purchased from Sigma-Aldrich Chemical Co. unless otherwise specified. SSG (1) was purchased from Wako Pure Chemical Industries, Ltd. Diosgenin (6), Dioscin (9), Polyphyllin D (10), Timosaponin BI (22) and Timosaponin BII (23) were purchased from Chengdu Must Bio-Technology Co.
Ltd. Yamogenin (7) was bought from Ambinter c/o Greenpharma while Smilagenin (24) was bought from Steraloids Inc. Substances dissolved in DMSO as stock solutions. Cell culture medium constituents were purchased from Life Technologies, Inc.
Cell culture: Neuro-2A cells expressing Swedish mutants of APP (N2A-APPswe provided by Prof. Yifan Han, The Hong Kong Polytechnic University)1 was cultured in minimal essential medium with 2 mM glutamine, 2 mM pyruvate and 10% fetal bovine serum. Cells were seeded at 6-well plate at 1×106 cells/mL and grown for two days until confluence. […]
Immunoblot analysis: Cells were washed with phosphate buffered saline and lysed with buffer containing 50 mM Tris-Cl, pH 7.4, 150 mM NaCl, 1% Triton X-100 supplemented with protease inhibitors. Equal amount of proteins (30 µg) was resolved by 16.5% Tris-tricine gels and then transferred to nitrocellulose membrane with 0.2 µm pore size. For detection of secreted Aβ, sAPPα and  sAPPβ, cells were treated with the timosaponins for 8 h in complete medium which were then replaced with medium containing 0.1% FBS. After further incubation of 16 h, 50 µL of the conditioned medium was mixed with SDS sample buffer and resolved accordingly. The membrane was blocked with Tris-buffered saline containing 0.1% Tween 20 and 3% BSA and then incubated with primary antibodies at 4 °C overnight, followed with appropriate secondary antibodies for 2 h. The primary antibodies were: APP c-terminal rabbit antibody (1:5000; Merck Bioscience) for detection of full length APP and APP-CTFs, mouse monoclonal 6E10 (Covance) for secreted Aβ and sAPPα,  mouse monoclonal 6A1 (IBL) for sAPPβswe, ADAM-10 rabbit antibody (Millipore) and BACE1
A general note: In western blotting, separated proteins are transferred to a membrane and probed.

Another assay concerns Neuro-2A cells. The experiment in a line: Neurite outgrowth, type III β-tubulin immunostaining. As to conditions: at concentrations that lower Aβ production, 18 h. The assay is classed as cell-based. How it is done:
Immunofluorescence examination of neurite outgrowth: Neuro-2A cells were seeded at 1×105 per glass bottom dishes. After treatment, cells were fixed with 4% paraformaldyde for 10 min, permeabilized with 0.1% Triton X-100, and then blocked with 1% BSA in PBS.
The cells were incubated with monoclonal antibody raised against type III β-tubulin (Sigma) for 1 h followed by Alexa488 conjugated secondary antibody. Neurite morphology was examined under fluorescence microscope. […]

The subject of the next assay is Aβ42 levels in the brain. As to the kind of experiment: In vivo brain Aβ42 level by ELISA after oral dosing. Conditions: 100 mg kg^–1 oral gavage, three times in 2 days, 3–5 month old C57BL/6 mice. The method, then:
was performed at least three times. The lowest binding scores were computed and the conformations of the corresponding binding pose presented.
Quantum mechanics/Molecular mechanics. The binding between transmembrane and substrate was further optimized using the QM/MM approach and NWChem software. The quantum part (QM) included TAIII (total 116 atoms), while the rest of the system was modelled as the molecular mechanics (MM) level. The QM region was treated at the DFT level using the B3LYP method. The 6-31G* Pople basis set was employed for all the atoms.
The transmembrane was described with the AMBER parm99 force field. The binding structure was solvated in a cubic box with 6872 classical SPC/E water molecules. Three negative counter ions (Cl-) were added to neutralize the charges in the system. The structure was optimized by performing the BFGS algorithm for the QM part and the steepest descent algorithm for the MM part. The optimization of these two regions (QM and MM) was alternated until self-consistency was reached.
Animal experiments: Male C57BL/6N mice were housed in environmentally controlled room (temperature: 25 ± 2 °C, humidity: 50 ± 5%, 12-h light-dark cycle) in Laboratory Animal Unit, The University of Hong Kong and were freely access to food and water. TAIII, TAI SSG and compound 34 were dissolved in 5% Tween 80 and given to the mice by oral gavage at three repeated doses of 100 mg/kg in 48 hours. Mice were administrated with 5% Tween 80 (control group), TAIII, TAI SSG and 34. The experimental procedures were performed with the approval of Committee of Use of Live Animal for Teaching and Research of The University of Hong Kong. Blood (about 600-800 µL) was collected by cardiac puncture and added with 1/10 volume of Na2EDTA (20 mg/mL) to prevent coagulation. After centrifugation at 3000 g for 15 min at 4 °C, plasma was transferred to a centrifuge tube. […] Both plasma and brain samples were stored at -80 °C until they were analyzed. The Aβ42 levels were determined by Wako High Sensitive Aβx-42 ELISA kit. […]

For assay [2], the system named is Aβ40 and Aβ38 in N2A-APPswe cells. As to the kind of experiment: Aβ40 and Aβ38 in conditioned medium of N2A-APPswe cells by ELISA. Type of assay: cell-based. Conditions: compared with Aβ42. The method, then: Aβ ELISA: Aβ concentrations in conditioned medium were assayed using ELISA kits for […]
On the technique in general: ELISA stands for enzyme-linked immunosorbent assay.

Another assay addresses T1, purified BACE1 (Homo sapiens, UniProt P56817).
T1 construct: purchased Millipore
The experiment in a line: β-Secretase assay with purified BACE1. The assay is classed as biochemical. The method, then:
mM MES, pH5.5. Protein extracts (10 µg) were incubated with testing compounds or vehicle for 1 h at room temperature. The β-secretase activities were assayed by adding 10 µM fluorogenic β-secretase substrate (Millipore) to the reaction mixtures and the fluorescence (excitation, 380; emission, 460) were measured. β-Secretase assays were also performed using purified BACE1 (Millipore) at 100 ng in a buffer containing 50 mM MES, pH 5.5. […]

T1 sequence (P56817 46-501, species assumed): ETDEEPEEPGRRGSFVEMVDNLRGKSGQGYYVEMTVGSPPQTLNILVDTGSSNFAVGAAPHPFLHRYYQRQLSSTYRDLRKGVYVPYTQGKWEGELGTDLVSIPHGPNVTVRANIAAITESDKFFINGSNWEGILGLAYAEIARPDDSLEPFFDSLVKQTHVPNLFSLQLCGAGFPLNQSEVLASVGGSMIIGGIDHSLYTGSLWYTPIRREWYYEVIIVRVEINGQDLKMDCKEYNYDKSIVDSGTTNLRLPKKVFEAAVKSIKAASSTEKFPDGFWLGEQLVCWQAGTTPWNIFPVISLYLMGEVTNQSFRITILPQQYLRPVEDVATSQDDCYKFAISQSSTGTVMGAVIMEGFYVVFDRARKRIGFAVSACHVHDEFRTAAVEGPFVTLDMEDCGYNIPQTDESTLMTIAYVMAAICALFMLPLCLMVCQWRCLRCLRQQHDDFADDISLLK

Regarding `C[C@H]1CC[C@@]2(OC1)O[C@H]1C[C@H]3[C@@H]4CC[C@@H]5C[C@@H](O)CC[C@]5(C)[C@H]4CC[C@]3(C)[C@H]1[C@@H]2C` [SSG (1), sarsasapogenin], in assay [1] (100 μM), the sAPPα levels result was “marked increase”; the “α-CTF and β-CTF expression” value was “increased”. Also, in the assay on Neuro-2A cells, the neurite outgrowth result is on record as “markedly stimulated”.

As for `C[C@H]1CC[C@@]2(OC1)O[C@H]1C[C@H]3[C@@H]4CC[C@@H]5C[C@@H](O[C@@H]6O[C@H](CO)[C@H](O)[C@H](O)[C@H]6O)CC[C@]5(C)[C@H]4CC[C@]3(C)[C@H]1[C@@H]2C` [TAI (3), timosaponin A I], the “reduction of Aβ42 levels in the brain” value in the assay with Aβ42 levels in the brain is 87% ± 14%. Further, in assay [2], the “effect on Aβ40 and Aβ38” value was “much smaller effect”.

Consider `C[C@H]1CC[C@@]2(OC1)O[C@H]1C[C@H]3[C@@H]4CC[C@@H]5C[C@@H](O[C@@H]6O[C@H](CO)[C@H](O)[C@H](O)[C@H]6O[C@@H]6O[C@H](CO)[C@@H](O)[C@H](O)[C@H]6O)CC[C@]5(C)[C@H]4CC[C@]3(C)[C@H]1[C@@H]2C` [TAIII (2), timosaponin A III], for which, in assay [1], the “expression of ADAM-10” value is reported as “did not alter” and the “expression of the β-secretase BACE1” value was “did not affect”. Further, the “α-secretase-cleaved CTF (C-83) and secreted APPα” value in assay [1] (10 μM) is listed as “increased”. Moreover, the “expression of full length APP” value in assay [1] (18 h) is “did not elicit a change”. Besides, the “levels of β-secretase-cleaved CTF (C-99) and secreted APPβ” value in assay [1] (concentration-dependent) is recorded as “decreased”. The “reduction of Aβ42 levels in the brain” value with Aβ42 levels in the brain is given as 83% ± 13%. Besides, the “activities of purified BACE1” value at purified BACE1 was “did not affect”. Further, in assay [2], the “effect on Aβ40 and Aβ38” value is on record as “much smaller effect”.
